Structures are written as SMILES. Read-outs that look alike come from different tables or passages of the source.

For one data set, the system named is C57BL/6 mice. As to conditions: 10 mice per dose. How it is done: Single dose LD50 in C57BL/6 mice for Cpd. 1 is determined following the method of Spearman and Karber described in Basic Exercises in Immunochemistry, 1979. Briefly, 0.5 ml of each dose is given to each of ten mice. The survivors are counted after 3 days and the LD50 is calculated using the following formula: [formula] where D=fold diferences between doses, R=total number dead, and N=total number of animals tested.

Data set [1] deals with spleen lymphocytes of C57BL/6 mice. Nature of the data set: In vivo treatment, lymphocyte stimulation assay, C57BL/6 mice. The procedure:
The purpose of this assay is to challenge lymphocytes in microcultures with one or more polyclonal mitogens at concentrations that will induce mitogenesis within 72 hours of stimulation.
In the mouse model, spleens are removed from different strains of mice and the spleen cells are teased free and suspended in RPMI-1640 tissue culture medium at a concentration of usually 1×10^7 ml. These cells are dispensed at a concentration of 5.0×10^5 cells per microculture well in a 96 well flat bottom 96 well tissue culture plate. All testing of the compounds of this invention or mitogens are done in replicates of 10. The cells are then treated with PHA, Con-A, specific antigens, or buffer only. If in vitro testing is done, varying concentrations of the compounds of this invention or buffer only are added to the cells as well. After treatment with the mitogens and/or compounds of this invention, the cells are incubated for 72 hours. The response of these cells to mitogens and/or the compounds of this invention is assessed using ^14 C-thymidine labeling on the fourth day at a concentration of 0.01 μCi/well. The labeled cells are harvested using a lymphocyte harvestor and placed onto fibrous paper discs. A scintillation cocktail is added to vials contaning the discs and the results are obtained using a LKB-liquid scintillation counter (Model 1216/Rackbeta II). The data is expressed as a ratio of the cpm of the mitogen stimulated group to the control (non-mitogen) treated group=lymphocyte stimulation index (LSI).
The lymphocyte stimulation assay may be performed directly on spleen cells obtained from various strains of mice not treated with the compounds of this invention or on lymphocytes obtained from […]. […] Alternatively, the mice may be treated in vivo with the compounds of this invention by intraperitoneal multi-dose schedules, followed by sacrifice and harvesting spleen lymphocytes. These cells are then tested for their response to polyclonal mitogens or specific antigens used to immunize the mice. In this sytem however, no additional compound is added to the in vitro lymphocyte stimulation assay system.
Two strains of mice, C57BL/6 and BDF1 are treated for seven days with i.p. administration of either 25, 50, 100, 200, or 400 mg/kg of Cpd. 1 or just buffer. This is followed on the eighth day by a lymphocyte stimulation assay.
A comparison is made of the lymphocyte response to C57BL/6 mice treated 4 days with i.p. administration of either 50, 100, 200, 400 or 800 mg/kg of Cpd. 1, 50, 100, 200, 400 or 800 mg/kg of ascorbic acid (AA), or just buffer. This is followed on the fifth day by a lymphocyte stimulation assay.
Two strains of mice, C57BL/6 and BALB/c, are treated 4 days with i.p. administration of either 50, 100, 200, or 400 mg/kg of Cpd. 1, or just buffer. This is followed on the fifth day by a lymphocyte stimulation assay.
C57BL/6 mice were treated with four daily i.p. doses of either 50, 100, 200, or 400 mg/kg of Cpd. 1 or just buffer. On the fifth day a lymphocyte stimulation assay was performed.
Mice of the C57BL/6 strain were tested with i.p. administration of either 100, 200, 400 or 600 mg/kg of Cpd. 1 or just buffer. This was followed by removal of spleens and treatment of lymphocytes therein with mitogens PHA and Con-A.
The compound of Example 2, Cpd. 2, was tested in vivo by using C57BL/6 mice and treating them with […] or just buffer for four consecutive days by the i.p. route. On the fifth day a lymphocyte stimulation assay was performed.

With `Cc1ccc(C2(O)C(=O)OC3C(O)COC32O)o1.Cc1ccc(C2(O)C(=O)OC3C(O)COC32O)o1.O=C1CCC(=O)O1` (centres unmarked) [Cpd. 1], the “Number Dead on Day 3” value turned out to be 0 in the data set with C57BL/6 mice (single i.p. 1,000 mg/kg); 0 in the data set with C57BL/6 mice (single i.p. 2,000 mg/kg); 7 with C57BL/6 mice (single i.p. 4,000 mg/kg); 10 in the data set with C57BL/6 mice (single i.p. 8,000 mg/kg); 10 in the data set on C57BL/6 mice (single i.p. 16,000 mg/kg). Moreover, the “T-lymphocyte proliferation, PHA” value in data set [1] (200 mg/kg i.p., 7 days) is listed as “stimulation of T-lymphocyte proliferation”. Also, the “response to PHA” value in data set [1] (400 mg/kg compared to 200 mg/kg, four daily doses) is “decrease in the response to PHA”. Moreover, the PHA response result in data set [1] (400 mg/kg i.p., 7 days) is “strong suppression of the PHA response”. Besides, the Con-A response result was “suppression of the Con-A response” in data set [1] (400 mg/kg i.p., 7 days, compared to 200 mg/kg); “increased” in data set [1] (50, 100 and 200 mg/kg i.p., 7 days). Further, in data set [1] (400 mg/kg, compared to 200 mg/kg, 4 days), the “DNA synthesis of spleen cell lymphocytes” value is listed as “suppress DNA synthesis”. Also, the evidence of toxicity entry in data set [1] (600 mg/kg i.p., five day administration) is given as “no evidence of toxicity”. In addition, the stimulation of lymphocytes result in data set [1] (600 mg/kg, compared to 100 to 400 mg/kg, five days) is “less stimulation”. Besides, the “lymphocyte DNA synthesis, PHA and Con-A” value in data set [1] (50, 100 and 200 mg/kg i.p., 4 days) is reported as “tend to stimulate lymphocyte DNA synthesis”. The “response to polyclonal mitogens” value in data set [1] (50-400 mg/kg i.p., four daily doses) is reported as “Stimulation of the response to polyclonal mitogens”. Moreover, the “effect, Con-A” value was “significant stimulatory effect” in data set [1] (50 to 200 mg/kg i.p., 4 days) and “significant anti-proliferative effect” in data set [1] (400 to 800 mg/kg i.p., 4 days). For the same molecule, the “lymphocyte DNA synthesis, PHA” value in data set [1] (100 and 200 mg/kg i.p., 4 days) was “tend to stimulate lymphocyte DNA synthesis”. The “Con-A and PHA treated lymphocytes” value in data set [1] (100 to 400 mg/kg, five days) is on record as “significant stimulation”. The “DNA synthesis of spleen lymphocytes, PHA” value in data set [1] (400 to 800 mg/kg i.p., 4 days) is recorded as “suppress DNA synthesis of spleen lymphocytes”.
